Like-named read-outs stand apart in the source and are kept apart here.
Assays:
[1] = target: T1, MALT1 (Homo sapiens, UniProt Q9UDY8); test: Mechanistic validation of MALT1 degradation in wild type and CRBN knockout 293T cells (Western blot); assay type: cell-based; design: endogenous in cells; details: wild type vs CRBN knockout 293T cells, 10 μM, 24 hours; FIG. 2
T1 sequence (Q9UDY8 1-824): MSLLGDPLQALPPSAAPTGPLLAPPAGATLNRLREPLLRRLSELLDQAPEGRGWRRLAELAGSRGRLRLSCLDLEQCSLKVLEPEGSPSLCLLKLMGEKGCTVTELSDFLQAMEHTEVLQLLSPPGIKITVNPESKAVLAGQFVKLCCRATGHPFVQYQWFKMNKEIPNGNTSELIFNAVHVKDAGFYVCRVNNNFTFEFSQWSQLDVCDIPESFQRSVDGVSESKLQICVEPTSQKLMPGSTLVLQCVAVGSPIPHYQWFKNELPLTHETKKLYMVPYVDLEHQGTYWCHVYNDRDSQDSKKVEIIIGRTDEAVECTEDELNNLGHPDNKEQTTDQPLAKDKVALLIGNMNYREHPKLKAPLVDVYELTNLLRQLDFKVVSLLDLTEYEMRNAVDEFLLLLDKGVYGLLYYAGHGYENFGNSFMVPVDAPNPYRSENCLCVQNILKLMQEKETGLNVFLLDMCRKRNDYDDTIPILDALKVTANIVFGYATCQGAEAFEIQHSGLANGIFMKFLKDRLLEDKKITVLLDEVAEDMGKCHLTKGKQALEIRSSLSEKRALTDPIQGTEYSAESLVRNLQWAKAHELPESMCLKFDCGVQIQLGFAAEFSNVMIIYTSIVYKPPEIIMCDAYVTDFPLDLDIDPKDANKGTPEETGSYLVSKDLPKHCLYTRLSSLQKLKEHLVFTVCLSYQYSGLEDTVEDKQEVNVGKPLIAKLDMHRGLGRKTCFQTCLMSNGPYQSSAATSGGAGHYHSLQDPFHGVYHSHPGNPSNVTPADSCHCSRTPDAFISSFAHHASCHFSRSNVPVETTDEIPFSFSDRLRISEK
Experimental: Wild type and CRBN knockout 293T cells were treated with 10 μM of Example 1 or vehicle for 24 hours, and protein lysates were collected. The protein was analyzed by Western blot and immunoassayed for MALT1, CRBN, and Actin.
Wild type and CRBN knockout 293T cells were treated with 10 μM of Example 1 or vehicle for 24 hours, and protein lysates were collected. 80 μg of protein were analyzed by Western blot and immunoassayed for MALT1, CRBN and Actin.

[2] = target: T1, MALT1; test: MALT1 degradation assay (Western blot) in OCI-Ly3 cells; assay type: cell-based; design: endogenous in cells; host or cells: OCI-Ly3; details: 48 hours, normalized to Actin, relative to vehicle treated cells
Experimental: In the experiments, OCI-Ly3 cells were grown for 6 hours in the presence of the indicated concentrations of Examples 1-6, 9, and 10. Proteins were extracted, analyzed by Western blot, and membranes were immunoblotted for MALT1, CRBN, and Actin. Table 3 provides the results of experimental data obtained from the example compounds of the present disclosure. In particular, OCI-Ly3 cells were grown for 48 hours in the presence of the indicated concentrations of Examples 1-19. Proteins were extracted, analyzed by Western blot, and membranes were immunoblotted for MALT1, CRBN, and Actin. Western blot bands were quantified using Image Lab software. Results were normalized to Actin expression and presented as % MALT1 degradation relative to vehicle treated cells.

[3] = read-out: % MALT1 Degradation at 1 μM

% MALT1 degradation at 1 µM [2, 3] | % MALT1 degradation at 1 µM [2] | SMILES | CRBN-dependent MALT1 degradation [1]
31 to 50% |  | C[C@@H](c1c(NC(=O)Nc2cnc(-n3nccn3)c(Cl)c2)cnc2cc(Cl)nn12)N(C)C(=O)CCOCCOCCOCCOCCNc1cccc2c1C(=O)N(C1CCC(=O)NC1=O)C2=O (stereo partly drawn) [Example 1, N—((S)-1-(2-Chloro-6-(3-(5-chloro-6-(2H-1,2,3-triazol-2-yl)pyridin-3-yl)ureido)pyrazolo[1,5-a]pyrimidin-7-yl)ethyl)-1-((2-(2,6-dioxopiperidin-3-yl)-1,3-dioxoisoindolin-4-yl)amino)-N-methyl-3,6,9,12-tetraoxapentadecan-15-amide] | promoted CRBN-dependent MALT1 degradation
10 to 30% |  | CO[C@@H](C)c1c(NC(=O)Nc2cnc(-n3cc(CNC(=O)CCOCCOCCNc4cccc5c4CN(C4CCC(=O)NC4=O)C5=O)cn3)c(Cl)c2)cnc2cc(Cl)nn12 (stereo partly drawn) [Example 5, N-((1-(3-Chloro-5-(3-(2-chloro-7-((S)-1-methoxyethyl)pyrazolo[1,5-a]pyrimidin-6-yl)ureido)pyridin-2-yl)-1H-pyrazol-4-yl)methyl)-3-(2-(2-((2-(2,6-dioxopiperidin-3-yl)-1-oxoisoindolin-4-yl)amino)ethoxy)ethoxy)propanamide] | 
 | no degradation | CO[C@@H](C)c1c(NC(=O)Nc2cc(Cl)cnc2OCCNC(=O)CCCCCCCCOc2cccc3c2C(=O)N(C2CCC(=O)NC2=O)C3=O)cnc2cc(Cl)nn12 (stereo partly drawn) [Example 16, N-(2-((5-Chloro-3-(3-(2-chloro-7-((S)-1-methoxyethyl)pyrazolo[1,5-a]pyrimidin-6-yl)ureido)pyridin-2-yl)oxy)ethyl)-9-((2-(2,6-dioxopiperidin-3-yl)-1,3-dioxoisoindolin-4-yl)oxy)nonanamide] | 
